Biological target: T1, Delta Opioid receptor implicated in the heterodimer with Dopamine D2 (Homo sapiens, UniProt P41143)
T1 construct: membrane-addressing signal peptide T8 (printed '18') (N); expressed in transfected cells; host or cells: HEK293T/17 cells, transient co-transfection
Type: binding
Conditions: 3 nM red antagonist of the opioid receptor, D2 receptor labeled with HALO-Lumi4Tb, HEK293T cells, FIG. 10

T1 sequence (P41143 whole entry): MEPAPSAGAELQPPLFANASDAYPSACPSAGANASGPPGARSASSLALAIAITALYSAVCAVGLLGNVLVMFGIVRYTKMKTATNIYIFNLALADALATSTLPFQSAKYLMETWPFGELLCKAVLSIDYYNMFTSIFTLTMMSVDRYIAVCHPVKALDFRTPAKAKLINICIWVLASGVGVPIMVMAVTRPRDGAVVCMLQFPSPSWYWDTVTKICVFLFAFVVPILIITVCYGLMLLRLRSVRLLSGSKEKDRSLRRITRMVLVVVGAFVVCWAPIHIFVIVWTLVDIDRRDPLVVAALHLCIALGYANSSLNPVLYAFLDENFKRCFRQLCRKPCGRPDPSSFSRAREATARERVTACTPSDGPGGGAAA
T1 sequence (P14416 1-414 isoform P14416-2 partner): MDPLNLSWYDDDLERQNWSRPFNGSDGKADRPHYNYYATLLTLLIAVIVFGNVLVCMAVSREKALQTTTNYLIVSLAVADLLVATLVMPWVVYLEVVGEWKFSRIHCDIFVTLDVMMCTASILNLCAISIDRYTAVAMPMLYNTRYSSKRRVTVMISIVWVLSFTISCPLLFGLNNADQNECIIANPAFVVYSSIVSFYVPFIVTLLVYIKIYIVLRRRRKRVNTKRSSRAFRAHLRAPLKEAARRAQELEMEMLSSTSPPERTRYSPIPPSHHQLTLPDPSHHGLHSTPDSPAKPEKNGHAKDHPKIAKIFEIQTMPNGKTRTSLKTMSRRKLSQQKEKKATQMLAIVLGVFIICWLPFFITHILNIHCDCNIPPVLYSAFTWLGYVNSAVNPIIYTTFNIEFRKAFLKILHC

SMILES	Competition with the fluorescent reference ligand and binding to the heterodimers
Oc1ccc2c3c1O[C@H]1c4[nH]c5ccccc5c4C[C@@]4(O)[C@@H](C2)N(CC2CC2)CC[C@]314 [Naltrindole]	compete with the fluorescent reference ligand and bind to the heterodimers
C=CCN1C[C@H](C)N([C@@H](c2ccccc2)c2ccc(C(=O)N(CC)CC)cc2)C[C@H]1C [SNC-162]	compete with the fluorescent reference ligand and bind to the heterodimers

— US8697372B2, “Method for determining the binding of a given compound to a membrane receptor” (CIS Bio International, priority 2009, dated 2014)
